Assays:
IDH1 mutant enzyme = experiment: Intracellular 2HG levels in IDH1mutant cells (neomorphic activity); format: cell-based; details: 72 hours, 10 μM, versus control treated cells
From the text: FIG. 2: D-2HG levels from IDH1mut cells treated with compound HMS-101 (drug) or solvent control.

[1] = test system: primary human AML cells harboring the IDH1 mutation; experiment: Rate of apoptosis of primary human AML cells; format: cell-based; details: IDH1-mutated primary human AML cells compared to AML cells with wildtype IDH1 and CD34+ cells from healthy donors
From the text: FIG. 4: Rate of apoptosis of primary human AML cells with and without IDH1 mutation treated with solvent control (DMSO) or compound HMS-101. Human CD34^+ hematopoietic stem and progenitor cells from healthy donors were used as controls.

[2] = test system: primary human AML cells harboring the IDH1 mutation; experiment: Colony forming assay of primary human AML cells; format: cell-based; details: IDH1-mutated primary human AML cells compared to AML cells with wildtype IDH1 and CD34+ cells from healthy donors
From the text: FIG. 3: Colony forming assay of primary human AML cells with and without IDH1 mutation treated with solvent control (DMSO) or compound HMS-101. Human CD34^+ hematopoietic stem and progenitor cells from healthy donors were used as controls.

[3] = Toxicity testing in animals; format: in vivo; details: mice, 1 mg intraperitoneally daily for two weeks
Description: The compound described herein has been given to mice at a dose of 1 mg intraperitoneally daily for two weeks.

IDH1wt cells = experiment: Alamar blue cell viability assay, IDH1wt cells; format: cell-based; details: IDH1wt cells in vitro, treated for 72 hours
Description: (§1) FIG. 1: IC50 values for IDH1wt and IDH1mut treated with compound HMS-101 for 72 hours.

IDH1mut cancer cells = experiment: Alamar blue cell viability assay, IDH1mut cells; format: cell-based
Description: as §1

[4] = test system: R-2-hydroxyglutarate (R-2HG); experiment: Ratio R-2HG/S-2HG in serum of treated mice; format: in vivo; details: treated mice versus PBS, 9 weeks after treatment, pooled serum
From the text: FIG. 6: Ratio of R-2-hydroxyglutarate (R-2HG) to S-2-hydroxyglutarate (S-2HG) in serum from mice treated with HMS-101 or solvent control (PBS) at 9 weeks after treatment. Serum from 3 mice were pooled per indicated measurement (9 mice for PBS, 12 mice for HMS-101).
2-hydroxyglutarate (R-2HG), in particular elevated values thereof, typically measured in terms of the ratio between R- and S-form (R-2HG/S-2HG) is a marker for leukemia in accordance with the present invention. […] This establishes both the usefulness of the mentioned ratio as a marker for leukemia and the beneficial effects of HMS-101.

[5] = test system: HoxA9 immortalized bone marrow cells expressing IDH1R132C; experiment: Survival of mice transplanted with HoxA9 immortalized IDH1R132C bone marrow cells; format: in vivo; details: 1 mg/mouse 5 days/week starting 5 days after transplantation, versus PBS; follow-up ongoing
Description: FIG. 5: Survival of mice treated with HMS-101.
HoxA9 immortalized bone marrow cells from C57BL/6J mice were transduced with retroviral vectors expressing IDH1R132C and GFP. One million GFP-expressing sorted cells were injected intravenously in lethally-irradiated syngeneic recipient mice, accompanied by a life-sparing dose of 1×10^5 freshly isolated bone marrow cells from syngeneic mice. One cohort of mice was treated with HMS-101 at a dose of 1 mg/mouse for 5 days/week starting 5 days after transplantation. The control cohort was treated with PBS for 5 days/week starting 5 days after transplantation. The solid line represents the survival of PBS-treated mice, the dotted line represents the survival of HMS-101-treated mice. Follow-up and treatment are ongoing.

CN1CCN(C)[C@H](CCN2CC[C@H](c3ccc(F)cc3)C2)C1 [HMS-101]
intracellular 2HG levels (D-2HG) (IDH1 mutant enzyme): dramatically reduced | rate of apoptosis [1]: increased the rate of apoptosis | colony forming potential [2]: reduced the colony forming potential | tolerability / visible signs of toxicity [3]: well tolerated by the animals with no visible signs of toxicity | IC50 (IDH1wt cells): 12 µM | IC50 on IDH1wt cells relative to IDH1mut cells (IDH1mut cancer cells; 72 hours): 12 times | IC50 (IDH1mut cancer cells; IDH1mut cancer cells in vitro, treated for 72 hours): 1 µM | ratio R-2HG/S-2HG in serum [4]: decrease of the ratio R-2HG/S-2HG | survival [5]: survival benefit
